The test system of assay [1] is Streptococcus pyogenes. As to the kind of experiment: Antibacterial activity against Streptococcus pyogenes EES61 was determined. The assay is classed as functional.
Assay [2] has as its system Streptococcus equinus. As to the kind of experiment: Antibacterial activity against Gram-positive Streptococcus bovis A5169 was determined. It counts as functional.
For assay [3], the system named is Escherichia coli. As to the kind of experiment: Effective dose against Escherichia coli JUHL in mice upon subcutaneous administration. It counts as functional. The note with it: sc.
For assay [4], the system named is Providencia stuartii. As to the kind of experiment: Antibacterial activity against Gram-negative Providencia Stuartii CMX640 was determined. The assay is classed as functional.
The test system of assay [5] is Enterococcus faecium. Nature of the assay: Antibacterial activity against Enterococcus faecium ATCC 8043 was determined. The assay is classed as functional.
For assay [6], the system named is Klebsiella aerogenes. As to the kind of experiment: Antibacterial activity against Enterobacter aerogenes ATCC 13048 was determined. It counts as functional.
Assay [7] is described as follows: Compound was tested for its effective dose against Escherichia coli JUHL in mice upon peroral administration. The assay is classed as functional. The following applies: Mus musculus, po.
For assay [8], the system named is Staphylococcus aureus. Nature of the assay: Antibacterial activity against Staphylococcus aureus A1775 was determined. The assay is classed as functional.
Assay [9] concerns Staphylococcus aureus. As to the kind of experiment: Effective dose against Staphylococcus aureus NCTC-10649M in mice upon subcutaneous administration. It counts as functional. The note with it: sc.
Assay [10] concerns Pseudomonas aeruginosa. Nature of the assay: Antibacterial activity against Pseudomonas aeruginosa A-5007 was determined. The assay is classed as functional.
Assay [11] relates to Staphylococcus aureus. Nature of the assay: Antibacterial activity against Staphylococcus aureus NCTC-10649M was determined. The assay is classed as functional.
Assay [12] has as its system Klebsiella pneumoniae. As to the kind of experiment: Antibacterial activity against Klebsiella pneumoniae ATCC 8045 was determined. The assay is classed as functional.
Assay [13] deals with Staphylococcus aureus. Nature of the assay: Effective dose against Staphylococcus aureus NCTC-10649M in mice upon peroral administration. The assay is classed as functional. The following applies: po.
The test system of assay [14] is DNA gyrase (bacterial). Nature of the assay: Compound was tested for bacterial DNA gyrase activity. The following applies: Bacteria.
Assay [15] concerns Escherichia coli. As to the kind of experiment: Antibacterial activity against Escherichia coli JUHL was determined. The assay is classed as functional.
[16] abbreviates: Streptococcus pyogenes, read-out: MIC.
The mark [17] stands for this setting: Streptococcus equinus, read-out: MIC.
Where [18] appears, read: Providencia stuartii, read-out: MIC.
Setting [19] is: Enterococcus faecium, ATCC 8043, read-out: MIC.
Setting [20] is: Staphylococcus aureus, read-out: MIC.
[21] abbreviates: Pseudomonas aeruginosa, read-out: MIC.
[22] abbreviates: Klebsiella pneumoniae, ATCC 8045, read-out: MIC.
Where [23] appears, read: Escherichia coli, read-out: MIC.
Setting [24] is: Klebsiella aerogenes, ATCC 13048, read-out: MIC.

≈ marks a conversion by molar mass, not a printed value.

For orientation: MIC means the lowest concentration found to suppress growth. As a reminder, the ED50 is the midpoint of the dose-response relation. Higher therefore signals a need for a large dose. For `Cc1c(N2C[C@@H](N)[C@H](F)C2)c(F)cn2c(=O)c(C(=O)O)cc(C3CC3)c12` (stereo in doubt; 3a-R,R7), the MIC in assay [1] (setting [16]) was 0.2 µg/mL (≈ 0.55 µM); in assay [2] (setting [17]), 0.39 µg/mL (≈ 1.07 µM); in [4] (setting [18]) it was 1.56 µg/mL (≈ 4.29 µM); in [5] (setting [19]), 0.2 µg/mL (≈ 0.55 µM); in [6] it was 0.2 µg/mL (≈ 0.55 µM); in assay [8] (setting [20]), 1.56 µg/mL (≈ 4.29 µM). For the same molecule, the MIC in assay [10] (setting [21]) is 1.56 µg/mL (≈ 4.29 µM); in [11], 0.05 µg/mL (≈ 0.138 µM); in assay [12] (setting [22]), 0.02 µg/mL (≈ 0.055 µM). For the same molecule, the ED50 in [3] is greater than 5 mg/kg/day; in [7], greater than 10 mg/kg/day; in assay [9], 4.8 mg/kg/day; in assay [13], 7.3 mg/kg/day.

In assay [14], `Cc1c(N2C[C@@H](N)[C@H](F)C2)c(F)cn2c(=O)c(C(=O)O)cc(C3CC3)c12` (stereo in doubt; 3a) [listing 1 of 2 here] yielded a CC50 of 0.7 µg/mL (≈ 1.93 µM).

In the case of `Cc1c(N2CCC(F)(CN)C2)c(F)cn2c(=O)c(C(=O)O)cc(C3CC3)c12` (centres undefined), the MIC in assay [1] (setting [16]) was determined as 0.02 µg/mL (≈ 0.053 µM); in assay [2] (setting [17]), 0.02 µg/mL (≈ 0.053 µM); in assay [15] (setting [23]), 0.02 µg/mL (≈ 0.053 µM); in [4] (setting [18]), 0.78 µg/mL (≈ 2.07 µM); in assay [5] (setting [19]), 0.02 µg/mL (≈ 0.053 µM); in assay [6] (setting [24]), 0.05 µg/mL (≈ 0.132 µM). The MIC was found to be 0.39 µg/mL (≈ 1.03 µM) in assay [8] (setting [20]), 0.39 µg/mL (≈ 1.03 µM) in [10] (setting [21]), 0.01 µg/mL (≈ 0.0265 µM) in [11] (setting [20]) and 0.005 µg/mL (≈ 0.0132 µM) in [12] (setting [22]).

For `Cc1c(N2C[C@@H](N)[C@H](C(F)(F)F)C2)c(F)cn2c(=O)c(C(=O)O)cc(C3CC3)c12`, the MIC in [1] (setting [16]) was determined as 0.2 µg/mL (≈ 0.484 µM); in [2] (setting [17]), 0.39 µg/mL (≈ 0.943 µM); in assay [15] (setting [23]), 0.05 µg/mL (≈ 0.121 µM); in assay [4] (setting [18]) it was 3.1 µg/mL (≈ 7.5 µM); in assay [5] (setting [19]), 0.2 µg/mL (≈ 0.484 µM); in [6] (setting [24]), 0.2 µg/mL (≈ 0.484 µM). In addition, the MIC in assay [8] (setting [20]) came out at 1.56 µg/mL (≈ 3.77 µM); in [10] (setting [21]) it was 0.78 µg/mL (≈ 1.89 µM); in assay [11] (setting [20]), 0.02 µg/mL (≈ 0.0484 µM); in assay [12] (setting [22]), 0.05 µg/mL (≈ 0.121 µM). Also, in assay [14], the CC50 came out at 3.8 µg/mL (≈ 9.19 µM). Further, the ED50 came to 4.8 mg/kg/day in assay [9] and 25.4 mg/kg/day in assay [13].

For `Cc1c(N2C[C@@H](CF)[C@H](N)C2)c(F)cn2c(=O)c(C(=O)O)cc(C3CC3)c12` (racemic), the MIC was 0.1 µg/mL (≈ 0.265 µM) in [1]; 0.01 µg/mL (≈ 0.0265 µM) in assay [15]; 0.78 µg/mL (≈ 2.07 µM) in assay [4]; 0.1 µg/mL (≈ 0.265 µM) in assay [5]; 0.05 µg/mL (≈ 0.132 µM) in assay [6]; 3.1 µg/mL (≈ 8.21 µM) in assay [8]. Further, the MIC turned out to be 0.39 µg/mL (≈ 1.03 µM) in assay [10], 0.2 µg/mL (≈ 0.53 µM) in assay [11] and 0.005 µg/mL (≈ 0.0132 µM) in assay [12].

Consider `Cc1c(N2C[C@@H](N)[C@H](F)C2)c(F)cn2c(=O)c(C(=O)O)cc(C3CC3)c12` (stereo in doubt; 3a) [listing 2 of 2 here], for which the MIC in assay [1] turned out to be 0.2 µg/mL (≈ 0.55 µM); in assay [2] it was 0.2 µg/mL (≈ 0.55 µM); in assay [15] (setting [23]), 0.02 µg/mL (≈ 0.055 µM); in assay [4], 1.56 µg/mL (≈ 4.29 µM); in assay [5], 0.1 µg/mL (≈ 0.275 µM); in assay [6], 0.05 µg/mL (≈ 0.138 µM). Further, the MIC in assay [8] came out at 0.78 µg/mL (≈ 2.15 µM); in assay [10], 0.78 µg/mL (≈ 2.15 µM); in assay [11], 0.02 µg/mL (≈ 0.055 µM); in assay [12], 0.02 µg/mL (≈ 0.055 µM).

On to `Cc1c(N2C[C@H](N)[C@@H](F)C2)c(F)cn2c(=O)c(C(=O)O)cc(C3CC3)c12`, for which the MIC worked out at 0.39 µg/mL (≈ 1.07 µM) in assay [1] (setting [16]); 0.39 µg/mL (≈ 1.07 µM) in [2] (setting [17]); 0.78 µg/mL (≈ 2.15 µM) in [4] (setting [18]); 0.39 µg/mL (≈ 1.07 µM) in assay [5] (setting [19]); 0.2 µg/mL (≈ 0.55 µM) in [6] (setting [24]); 1.56 µg/mL (≈ 4.29 µM) in assay [8] (setting [20]). Also, the MIC turned out to be 0.78 µg/mL (≈ 2.15 µM) in assay [10] (setting [21]), 0.05 µg/mL (≈ 0.138 µM) in assay [11] (setting [20]) and 0.02 µg/mL (≈ 0.055 µM) in assay [12] (setting [22]). For the same molecule, the ED50 in assay [3] is greater than 5 mg/kg/day; in assay [7] it was greater than 10 mg/kg/day; in [9], 4.8 mg/kg/day; in [13], 25 mg/kg/day.

Take `Cc1c(N2CC[C@H](N)C2)c(F)cn2c(=O)c(C(=O)O)cc(C3CC3)c12` [ABT-719]: the MIC came to 0.02 µg/mL (≈ 0.0579 µM) in assay [1] (setting [16]); 0.02 µg/mL (≈ 0.0579 µM) in [2] (setting [17]); 0.002 µg/mL (≈ 0.00579 µM) in [15] (setting [23]); 0.2 µg/mL (≈ 0.579 µM) in assay [4] (setting [18]); 0.02 µg/mL (≈ 0.0579 µM) in assay [5] (setting [19]); 0.005 µg/mL (≈ 0.0145 µM) in [6] (setting [24]). In addition, the MIC worked out at 0.78 µg/mL (≈ 2.26 µM) in assay [8] (setting [20]), 0.5 µg/mL (≈ 1.45 µM) in assay [10] (setting [21]), 0.1 µg/mL (≈ 0.29 µM) in [11] (setting [20]) and 0.005 µg/mL (≈ 0.0145 µM) in assay [12] (setting [22]). Moreover, the ED50 in assay [3] stood at 0.1 mg/kg/day; in assay [7] it was 0.6 mg/kg/day; in assay [9], 0.6 mg/kg/day; in assay [13], 3.4 mg/kg/day. The molecule further returned a CC50 in assay [14] of 0.03 µg/mL (≈ 0.0869 µM).
